From patent US10519105B2, “KCNQ2-5 channel activator” (ONO PHARMACEUTICAL CO., LTD., priority 2016, dated 2019) come the findings set out here.

For one data set, the target named is T1, Human KCNQ2/3 channel (Homo sapiens, UniProt O43525+O43526).
T1 construct: expressed in transfected cells; host or cells: CHO-DHFR- cells
Nature of the data set: Opening action with respect to KCNQ2/3 channel by depolarization stimulation (thallium influx, FLIPR). Format: cell-based. To be noted: concentration giving 50% of the maximum reaction of retigabine (10 μM); human KCNQ2/3 expressing CHO-DHFR- cells; read-out: KCNQ2/3 ECrtg50. The procedure:
Human KCNQ2/3 expression cells (CHO-DHFR− cells) were seeded in each well of a 384-well plate (collagen-coated, black, clear bottom) at 0.5×10^4 cells/50 μL per well and cultured using a MEM ALPHA medium (containing 10 vol % inactivated (56° C., 30 min) fetal bovine serum, 100 IU/mL penicillin, 100 μg/mL streptomycin, and 2 mM L-glutamine) at 37° C. in 5% CO2 for 18 to 24 hours. After the medium in the plate was removed, incubation (room temperature, 60 minutes, shading) was performed in a loading buffer (prepared by the method described in the manual of FluxOR Thallium Detection Kit (Invitrogen, F10016, F10017)). A KCNQ2/3 channel opening action (thallium influx into cells) by depolarization stimulation (5 mM potassium and 0.5 mM thallium) was measured by FLIPR TETRA (Molecular Devices). The compound of the present invention was treated 5 minutes before the depolarization stimulation, and the reaction induced by the depolarization stimulation was measured over time for 180 seconds. The channel opening action of the compound of the present invention was evaluated based on the change amount of the fluorescence intensity from the time before the depolarization stimulation to the time after the elapse of 180 seconds, and the concentration (ECrtg50) satisfying 50% of the fluorescence intensity change of a maximum reaction (in the treatment at 10 μM) of retigabine under the conditions of this experiment was calculated.

Data set [1] is described as follows: Stability in human liver microsomes. Format: in vitro ADME. To be noted: human liver microsomes 0.5 mg/mL, NADPH, 5 μM, 37° C., 15 minutes. The procedure: A test compound (a 10 mM DMSO solution, 5 μL) was diluted with a 50% aqueous acetonitrile solution (195 μL), whereby a 0.25 mM solution was prepared.
To a reaction vessel preheated to 37° C., 0.5 mg/mL of human liver microsomes (XenoTech, LLC) and 245 JLL of a 0.1 M phosphate buffer solution (pH 7.4) containing NADPH co-factor (BD Biosciences) were added, followed by preincubation for 5 minutes, and thereafter, the above-prepared test compound solution (5 μL) was added thereto to start a reaction (final concentration: 5 μM). Immediately after the start, a 20 μL portion was collected and added to 180 μL of acetonitrile containing an internal standard substance (warfarin) to stop the reaction. A 20 μL portion of this solution was stirred with 180 μL of a 50% aqueous acetonitrile solution on a plate equipped with a deproteinization filter, followed by suction filtration, and the filtrate was used as a standard sample.
After the above-prepared reaction solution was incubated at 37° C. for 15 minutes, a 20 μL portion of the solution was added to 180 μL of cooled acetonitrile (containing warfarin serving as an internal standard substance) to stop the reaction. A 20 μL portion of this solution was stirred with 180 μL of a 50% aqueous acetonitrile solution on a plate equipped with a deproteinization filter, followed by suction filtration, and the filtrate was used as a reaction sample.
A residual ratio (%) was calculated as follows. 1 μL of the sample solution was injected into LC-MS/MS (Discovery Max, manufactured by Thermo Scientific, Inc.), and a value obtained by dividing the peak area ratio of the reaction sample (peak area of test compound/peak area of internal standard substance) by the peak area ratio of the standard sample was multiplied by 100.

In another data set the target is T2, hERG IKr current (Homo sapiens, UniProt Q12809).
T2 construct: expressed in transfected cells; host or cells: HEK293 cells
The experiment in a line: Action on hERG IKr current (patch-clamp, HEK293 cells overexpressing hERG). In kind it is cell-based. To be noted: maximum tail current, 10 minutes after application, read-out: 50% hERG channel inhibitory activity. How it is done: By using HEK293 cells overexpressing a human ether-a-go-go-related gene (hERG), the maximum tail current of the hERG IKr current induced by redepolarization pulse subsequent to depolarization pulse was measured by a patch-clamp method, and the percent change (suppression ratio) after 10 minutes from application of a test substance with respect to the maximum tail current before the application of the test substance was calculated (see, Biophysical Journal, vol. 74, pp. 230-241 (1998)).

Data set [2] in a line: Solubility test (DMSO precipitation method, Japanese Pharmacopoeia dissolution test second solution). To be noted: aqueous buffer, kinetic from dmso stock, JP dissolution test second solution pH 6.8, room temperature, quantification range 5 to 100 μM. Format: physicochemical. How it is done:
A calibration curve solution was prepared at 0.1, 0.4, and 2 μM by diluting a test substance (a 10 mM DMSO solution) with acetonitrile and adding acetonitrile containing an internal standard substance (candesartan).
A sample solution was prepared as follows. 5 μL of the compound of the present invention (a 10 mM DMSO solution) was added to 495 μL of the Japanese Pharmacopoeia dissolution test second solution (pH: 6.8), followed by stirring at room temperature for 5 hours. Then, the solution was transferred to a solubility filter plate and subjected to suction filtration. The filtrate (20 μL) was diluted with acetonitrile, followed by adding acetonitrile containing an internal standard substance (candesartan).
Each of the calibration curve and sample solutions (5 μL) was injected into LC-MS/MS (Discovery Max, manufactured by Thermo Scientific, Inc.) and subjected to quantification (quantification range: 5 to 100 μM). The solubility in the case where the value equal to or less than the quantification range was obtained was defined as <5 μM, and the solubility in the case where the value equal to or more than the quantification range was obtained was defined as […].

In data set [3] the test system is bladder extracted from rat. Nature of the data set: Relaxing action on bladder extracted from rat (carbachol-induced contraction, Magnus tube). The following applies: rat bladder strip, carbachol 1 μM contraction; read-out: IC20 (percent change in tension -20%). The procedure:
Female Jcl:Wistar rats (CLEA Japan, Inc., body weight at use: 170 to 200 g) were anesthetized by intraperitoneal administration of about 40 mg/kg of pentobarbital (Somnopentyl, Schering Plough Animal Health Corporation), and killed by bloodletting. The bladder was extracted by abdominal incision and immediately thereafter immersed in ice-cooled Krebs buffer (Krebs Ringer bicarbonate buffer (Sigma-Aldrich Co. LLC) supplemented with sodium hydrogen carbonate (final concentration: 15 mM) and calcium chloride (final concentration: 2.5 mM)) saturated with a mixed gas (95% O2, 5% CO2).
The bladder body extracted from each rat was cut into an oblong strip shape (about 10×3 mm), whereby a specimen was prepared on ice. Immediately thereafter, the specimen was suspended in a Magnus tube filled with Krebs buffer (37° C.) bubbled with the mixed gas while applying a tension load of 500 mg thereto. Incidentally, the specimen was prepared within 24 hours after extracting the tissue.
After the elapse of one hour or more from the suspension of the specimen, 2.5 M KCl was added thereto to a final concentration of 100 mM, and the specimen in which a contraction reaction could be confirmed was used.
Carbachol (a contraction inducer) contraction was induced at a concentration of 1 μM. […] After the contraction reaction was stabilized, physiological saline or the compound of the present invention was added thereto to a final concentration of 1 nM, 10 nM, 100 nM, 1 μM, and […] in a cumulative manner from a low concentration.
The tension (mg) in the extracted bladder was used as an evaluation item. The tension was read using analysis software WAVE THERMO 1000. A percent change in tension after adding the compound of the present invention when the tension after adding the contraction inducer was taken as 0% was defined as a percent change in tension (%) and used as an evaluation index. The percent change in tension (%) is calculated according to the following formula. percent change in tension (%)={tension (mg) after adding compound of the present invention and the like−tension (mg) before adding contraction inducer}/{tension (mg) after adding contraction inducer−tension (mg) before adding contraction inducer}×100−100
The value at which the percent change in tension (%) was −20% was calculated as IC20 and used as an index of the relaxing action on the extracted bladder.

Converted amounts (≈) assume the structure as drawn. Bounds are passed on as bounds.

T2 sequence (Q12809 whole entry): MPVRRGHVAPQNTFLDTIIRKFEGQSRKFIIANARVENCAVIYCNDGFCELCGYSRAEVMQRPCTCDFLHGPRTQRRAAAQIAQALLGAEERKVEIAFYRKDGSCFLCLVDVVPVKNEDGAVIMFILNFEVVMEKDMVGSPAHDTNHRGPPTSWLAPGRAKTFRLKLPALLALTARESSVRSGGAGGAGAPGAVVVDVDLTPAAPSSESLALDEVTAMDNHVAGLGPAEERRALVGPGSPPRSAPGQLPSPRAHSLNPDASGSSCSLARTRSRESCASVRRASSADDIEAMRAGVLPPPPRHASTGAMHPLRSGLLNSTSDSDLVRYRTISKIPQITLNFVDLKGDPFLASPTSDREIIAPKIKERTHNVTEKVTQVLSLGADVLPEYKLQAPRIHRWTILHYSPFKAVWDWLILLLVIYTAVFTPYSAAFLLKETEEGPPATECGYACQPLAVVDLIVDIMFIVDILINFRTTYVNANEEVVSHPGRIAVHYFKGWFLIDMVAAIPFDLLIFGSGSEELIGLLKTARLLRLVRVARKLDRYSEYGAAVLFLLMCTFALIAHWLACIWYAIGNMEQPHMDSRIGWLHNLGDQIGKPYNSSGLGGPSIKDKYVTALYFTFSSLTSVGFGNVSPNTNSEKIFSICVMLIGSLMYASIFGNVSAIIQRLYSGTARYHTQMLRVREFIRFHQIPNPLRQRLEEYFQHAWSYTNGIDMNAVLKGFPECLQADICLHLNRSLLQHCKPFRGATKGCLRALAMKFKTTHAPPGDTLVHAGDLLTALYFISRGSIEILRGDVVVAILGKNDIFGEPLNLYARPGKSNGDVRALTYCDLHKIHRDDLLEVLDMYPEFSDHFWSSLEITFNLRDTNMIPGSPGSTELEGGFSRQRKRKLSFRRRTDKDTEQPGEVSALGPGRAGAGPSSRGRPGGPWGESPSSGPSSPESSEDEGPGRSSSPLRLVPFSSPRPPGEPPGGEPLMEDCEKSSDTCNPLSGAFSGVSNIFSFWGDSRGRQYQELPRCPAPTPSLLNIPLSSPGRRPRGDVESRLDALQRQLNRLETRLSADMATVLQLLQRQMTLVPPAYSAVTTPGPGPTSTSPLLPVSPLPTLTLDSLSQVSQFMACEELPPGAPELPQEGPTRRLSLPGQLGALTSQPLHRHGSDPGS

In the case of `CC1(O)CCc2c1cc(Cl)c(NC(=O)NCc1ccc(C(F)(F)F)cn1)c2Cl` (single isomer, unassigned) [Example 4(4), 1-(4,6-dichloro-1-hydroxy-1-methyl-2,3-dihydro-1H-inden-5-yl)-3-{[5-(trifluoromethyl)-2-pyridinyl]methyl}urea], at Human KCNQ2/3 channel, the EC50 is 0.3 µM. Besides, the Residual ratio in data set [1] is reported as 98%. The IC50 at hERG IKr current is more than 10 µM.
Take `CC1(O)CCc2c1cc(Cl)c(NC(=O)NCCc1ccc(F)cc1)c2Cl` (stereo not shown) [Example 3(7), 1-(4,6-dichloro-1-hydroxy-1-methyl-2,3-dihydro-1H-inden-5-yl)-3-[2-(4-fluorophenyl)ethyl]urea]: on Human KCNQ2/3 channel, the EC50 is 0.5 µM. Besides, the concentration in solution in data set [2] (solubility at 5 h) came to 86 µM (≈ 34.2 µg/mL).
For `CC1(O)CCc2c1cc(Cl)c(NC(=O)NCCC1CCCC1)c2Cl` (stereo not shown) [Example 3(13), 1-(2-cyclopentylethyl)-3-(4,6-dichloro-1-hydroxy-1-methyl-2,3-dihydro-1H-inden-5-yl)urea] the same measures were 0.02 µM and 92 µM (≈ 34.2 µg/mL).
As to `CC1(O)CCc2c1cc(Cl)c(NC(=O)OCc1ccc(F)cc1)c2Cl` (stereo not shown) [Example 3(19), 4-fluorobenzyl(4,6-dichloro-1-hydroxy-1-methyl-2,3-dihydro-1H-inden-5-yl)carbamate], the EC50 at Human KCNQ2/3 channel is 0.05 µM. The concentration in solution in data set [2] (solubility at 5 h) was 76 µM (≈ 29.2 µg/mL). Moreover, the Residual ratio in data set [1] amounted to 83%.
For `CC1(O)CCc2c1cc(Cl)c(NC(=O)NCCOc1ccc(F)cc1)c2Cl` (stereo not shown) [Example 3(23), 1-(4,6-dichloro-1-hydroxy-1-methyl-2,3-dihydro-1H-inden-5-yl)-3-[2-(4-fluorophenoxy)ethyl]urea], the EC50 on Human KCNQ2/3 channel came to 0.6 µM. In addition, the solubility at 5 h in data set [2] turned out to be 83 µM (≈ 34.3 µg/mL).
For `CC1(CNC(=O)Nc2c(Cl)cc3c(c2Cl)CCC3(O)C(F)(F)F)CCOCC1` (stereo not shown) [Example 12(2), 1-[4,6-dichloro-1-hydroxy-1-(trifluoromethyl)-2,3-dihydro-1H-inden-5-yl]-3-[(4-methyltetrahydro-2H-pyran-4-yl)methyl]urea] the same measures were 0.2 µM and 85 µM (≈ 37.5 µg/mL).
With `O=C(NCc1ccc(C(F)(F)F)cn1)Nc1c(Cl)cc2c(c1Cl)CCC2(O)C(F)(F)F` (stereo not shown) [Example 12(4), 1-[4,6-dichloro-1-hydroxy-1-(trifluoromethyl)-2,3-dihydro-1H-inden-5-yl]-3-{[5-(trifluoromethyl)-2 pyridinyl]methyl}urea], at Human KCNQ2/3 channel, the EC50 was found to be 0.002 µM. In addition, the IC20 in data set [3] stood at 0.01 µM. This molecule returned a solubility at 5 h in data set [2] of 87 µM (≈ 42.5 µg/mL). Also, the Residual ratio in data set [1] turned out to be 77%.
With `C[C@@H](NC(=O)Nc1c(Cl)cc2c(c1Cl)CCC2(O)C(F)(F)F)c1ccc(F)cc1` (stereo partly drawn) [Example 12(5), 1-[4,6-dichloro-1-hydroxy-1-(trifluoromethyl)-2,3-dihydro-H-inden-5-yl]-3-[(1R)-1-(4-fluorophenyl)ethyl]urea], the concentration for an effect of 20% (IC20) in data set [3] turned out to be 0.03 µM. At hERG IKr current, the IC50 is more than 10 µM.
Turning to `Cc1cc(CNC(=O)Nc2c(Cl)cc3c(c2Cl)CCC3(O)C(F)(F)F)no1` (stereo not shown) [Example 12(8), 1-[4,6-dichloro-1-hydroxy-1-(trifluoromethyl)-2,3-dihydro-1H-inden-5-yl]-3-[(5-methyl-1,2-oxazole-3-yl)methyl]urea], the EC50 at Human KCNQ2/3 channel turned out to be 0.2 µM. For the same molecule, in data set [2], the concentration in solution (solubility at 5 h) came to 94 µM (≈ 39.9 µg/mL). For the same molecule, the Residual ratio in data set [1] is recorded as 100%.
Turning to `O=C(NCC1CC1)Nc1c(Cl)cc2c(c1Cl)CCC2(O)C(F)(F)F` (stereo not shown) [Example 12(13), 1-(cyclopropylmethyl)-3-[4,6-dichloro-1-hydroxy-1-(trifluoromethyl)-2,3-dihydro-1H-inden-5-yl]urea], the EC50 at Human KCNQ2/3 channel is 0.06 µM. In addition, the solubility at 5 h in data set [2] stood at 78 µM (≈ 29.9 µg/mL). Further, the Residual ratio in data set [1] is 100%.
Consider `O=C(NCc1ccc(F)cc1)Nc1c(Cl)cc2c(c1Cl)CCC2(O)C(F)(F)F` (stereo not shown) [Example 12, 1-[4,6-dichloro-1-hydroxy-1-(trifluoromethyl)-2,3-dihydro-1H-inden-5-yl]-3-(4-fluorobenzyl)urea], for which the EC50 at Human KCNQ2/3 channel was determined as 0.005 µM. The IC20 in data set [3] was determined as 0.01 µM. This molecule also yielded a solubility at 5 h in data set [2] of 82 µM (≈ 35.9 µg/mL). For the same molecule, in data set [1], the Residual ratio was found to be 94%. Further, on hERG IKr current, the IC50 was more than 10 µM.
Take `C[C@@H](NC(=O)Nc1c(Cl)cc2c(c1Cl)CC[C@]2(O)C(F)(F)F)c1ccc(F)cc1` [Example 21, 1-[(1R)-4,6-dichloro-1-hydroxy-1-(trifluoromethyl)-2,3-dihydro-1H-inden-5-yl]-3-[(1R)-1-(4-fluorophenyl)ethyl]urea]: the EC50 on Human KCNQ2/3 channel came out at 0.005 µM. Moreover, in data set [2], the concentration in solution (solubility at 5 h) came to 72 µM (≈ 32.5 µg/mL). The Residual ratio in data set [1] was 95%.
`CC1(C)CC(C)(O)c2cc(Cl)c(NC(=O)NCc3ccc(C(F)(F)F)cn3)c(Cl)c21` (stereo not shown) [Example 35, 1-(4,6-dichloro-1-hydroxy-1,3,3-trimethyl-2,3-dihydro-1H-inden-5-yl)-3-{[5-(trifluoromethyl)-2 pyridinyl]methyl}urea]: on Human KCNQ2/3 channel, the EC50 turned out to be 0.3 µM. The solubility at 5 h in data set [2] came to 80 µM (≈ 37 µg/mL). The Residual ratio in data set [1] was found to be 81%.
